Measurements: US9974931B2, “Pharmaceutical-coated medical products, the production thereof and the use thereof” (Invatec Technology Center Gmbh, priority 2007, dated 2018)

What was measured:
[1] = Coating of balloon catheters with methotrexate: content of active substance; type: physicochemical; settings: balloons 3.5 to 19 mm; 2×16 μl coating plus additional coat with Ultravist-370 + HES + methotrexate
Method: 30 mg methotrexic acid+100 μl sodium bicarbonate (7.5%)+900 μl methanol (coating with 2×16 μl, corresponding to ˜4 μg/mm^2 balloon surface)
Additional coat: Ultravist®-370+hydroxyethyl starch (HES) 10% (1:1 by volume)+30 mg methotrexate/ml applied by immersing for a short time
Stents: stainless steel, balloon-expandable 3.5 to 18 mm
Content of active substance: 5.3 μg/mm^2 balloon surface

[2] = system: overstretched coronary arteries in pigs; test: Efficacy and tolerance of coated balloon catheters with stent implantation, quantitative angiography after 4 weeks; type: in vivo; settings: pig coronary artery, n = 8; for Late lumen loss: within 4 weeks
From the text: The efficacy and tolerance of coated balloon catheters according to example 5 in overstretched coronary arteries in pigs
Method: Scheller B, Speck U, Abramjuk C, Bernhardt U, Böhm M, Nickenig G: Paclitaxel balloon coating—a novel method for prevention and therapy of restenosis. Circulation 2004; 110: 810-4
Stents were implanted into pigs with the help of methotrexate coated or uncoated (control) balloon catheters. After 4 weeks the extent of the constriction of the lumen in the area of the stent was measured using quantitative angiography.
The late lumen loss means the amount by which the original coronary artery lumen diameter decreases due to excessive cell growth within 4 weeks. With blood flowing through them the original coronary artery lumen diameters were 2.64 mm and 2.41 mm respectively. In the control group (no methotrexate) the late lumen loss was 1.1 mm and in the group treated with methotrexate the late lumen loss was 0.67 mm.

[3] = Coating of hydrophilic and non-hydrophilic balloon catheters with paclitaxel by immersion: paclitaxel content on balloon; type: physicochemical; settings: 4 immersions, 30 mg paclitaxel/ml
Method: Coating solution: 30 mg paclitaxel/ml in acetone 89%, ethanol 9%, Ultravist®-370 (Schering AG, Berlin) 2%, by immersing it 4 times and allowing it to dry between each immersion: […]

[4] = Loss of the active substance during expansion in the dry state (adhesion test); type: physicochemical
From the text: The active substance can, for example, be released in the form of particles and can then become effective by dissolution in the course of a longer period of time; • Low molecular weight: Substances with a molecular weight less than 5000 Da, and preferably <2000 Da, and particularly preferred <1000 Da; • Hydrophilic/hydrophilised balloon membrane: hydrophilic membranes consisting of materials which can be wetted with water or with hydrophilic solvents; hydrophilised membranes are membranes made out nylon, for example, whose surfaces were changed by subsequent treatment into a state that can be wetted with water or other hydrophilic solvents. • Hydrophilic or hydrophilised membranes are not to be confused with membranes which are provided with an additional hydrophilic layer; • Hydrophilically-coated balloon membrane: A membrane, which contains an additionally applied layer, which can itself be wetted with water; • Open on the surface: Pharmaceuticals or additives which are not incorporated into the balloon membrane or which are not incorporated into any layers that are firmly attached to the balloon membrane. For example, they are not incorporated in any polymeric water-insoluble coatings particularly any hydrogels that may not become detached. […] The balloons are expanded when dry and shaken for 5 seconds in a glass vessel. More than 75% of the dose remains on the balloon; • Highly volatile: Solvents with a boiling point below 300° C., and preferably below 160° C., with below 100° C. being particularly preferred.
Each balloon was coated in the folded state with 3 to 4 μg/mm^2 paclitaxel and was tested for loss of the active substance during expansion in the dry state as defined under ‘Definitions’.

Content of active substance [1] | μg paclitaxel/mm^2 balloon surface ([3]; hydrophilic catheter, 3.5 to 15 mm, 5 balloon catheters) | μg paclitaxel/mm^2 balloon surface ([3]; hydrophilic catheter, 3.5 to 20 mm, 8 balloon catheters) | μg paclitaxel/mm^2 balloon surface ([3]; standard catheter, 3.5 to 15 mm, 5 balloon catheters) | μg paclitaxel/mm^2 balloon surface ([3]; standard catheter, 3.5 to 20 mm, 8 balloon catheters) | loss of the active substance during expansion in the dry state ([4]; series 1, coating solvent Acetic acid) | loss of the active substance during expansion in the dry state ([4]; series 1, coating solvent Acetone, 3 to 4 μg/mm^2, folded) | loss of the active substance during expansion in the dry state ([4]; series 1, coating solvent Dimethylformamide) | loss of the active substance during expansion in the dry state ([4]; series 1, coating solvent Dimethylsulfoxide) | loss of the active substance during expansion in the dry state ([4]; series 1, coating solvent Dioxane) | loss of the active substance during expansion in the dry state ([4]; series 1, coating solvent Isopropanol) | loss of the active substance during expansion in the dry state ([4]; series 1, coating solvent Tetrahydrofuran) | loss of the active substance during expansion in the dry state ([4]; series 2, Tetrahydrofuran with 10% water by volume) | loss of the active substance during expansion in the dry state ([4]; series 2, Tetrahydrofuran with 20% water by volume) | loss of the active substance during expansion in the dry state ([4]; series 2, Tetrahydrofuran with 37% water by volume) | loss of the active substance during expansion in the dry state ([4]; series 2, coating solvent Tetrahydrofuran) | SMILES | Minimum vessel diameter 28d ([2]; 28 d) | Late lumen loss [2] | Late lumen loss ([2]; listed as methotrexate)
5.3 μg/mm^2 balloon surface | – | – | – | – | – | – | – | – | – | – | – | – | – | – | – | CN(Cc1cnc2nc(N)nc(N)c2n1)c1ccc(C(=O)N[C@@H](CCC(=O)O)C(=O)O)cc1 [Methotrexate, methotrexate] | 1.74 ± 0.41 mm | 0.67 ± 0.39 mm | 0.67 mm
– | 2.8 μg/mm^2 | 5.6 μg/mm^2 | 3.4 μg/mm^2 | 5.0 μg/mm^2 | 4% | 21% | 24% | 66% | 12% | 19% | 4% | 3% | 16% | 37% | 3% | CC(=O)O[C@H]1C(=O)[C@@]2(C)[C@H]([C@H](OC(=O)c3ccccc3)[C@]3(O)C[C@H](OC(=O)[C@H](O)[C@@H](NC(=O)c4ccccc4)c4ccccc4)C(C)=C1C3(C)C)[C@]1(OC(C)=O)CO[C@@H]1C[C@@H]2O [paclitaxel] | – | – | –
